Data taken from patent US20200129525A1, “Method to improve quality of life in non-primate animals by administration of Dehydroepiandrosterone Sulfate (DHEAS) sufficient to achieve primate-specific levels of circulating DHEAS that are not natural to the target species” (priority 2018, published 2020).
Where “and” joins values, the source holds several entries; their conditions need not be identical. Equal entries are not always repeated.

Tested on: dogs
Test: Study on 60 dogs: owner estimation of playfulness and sociability before and after DHEAS treatment
Format: in vivo, dog
Settings: for playfulness and sociability: dogs
Method: Table 1. […] Playfulness was defined as a dog initiating solitary play. Sociability was defined as a dog initiating play with another pet or with its owner. […] Of twenty-six dogs treated the highest doses (25 or 50 mg/kg) eighteen owners reported the changes in their dogs to be dramatic.
Physiological levels of circulating DHEAS in canines are 10 ng/ml (±2 ng/ml) (Frank et al, 2003; Odell & Parker, 1985; Tremblay & Belanger, 1985; Mialot et al, 1988; Mongillo et al, 2014; Rondelli et al, 2015). Our invention employs doses of DHEAS that produce supra-physiologic concentrations of circulating DHEAS at least nine times higher than this, i.e., at least 90 ng/ml, i.e. equivalent to the lower range of primate-specific high levels of circulating DHEAS (FIG. 1). This equates to a minimum treatment dose of 0.009 mg/kg. Our studies reported here were performed with DHEAS administered at ranges from 0.5-50 mg/kg. For all non-primate animals, this invention employs supra-physiologic doses of DHEAS that produce concentrations of circulating DHEAS that are at least ten-fold higher than those found naturally
Thus, in 56 of 60 treated dogs, owners reported observing a very clear improvement in their dog's playfulness and sociability, an observation that in most cases was also remarked upon by visitors to the owner's home. The uniformity of this finding is surprising, because the natural levels of canine DHEAS are quite low, and so this species has never been exposed to such high levels as we report here. Clearly, dogs experience an unmistakable positive response to exogenous DHEAS.
We administered our DHEAS orally, as a liquid, or in capsules. A preferred embodiment of this invention are dosage formulations that mask the bitter flavor of DHEAS from dogs or other pet animals receiving it orally. As an example, Onda et al. (U.S. Pat. No. 4,385,078A) teach methods for providing enteric coatings for solid dosage forms. Tai (U.S. Pat. No. 5,013,557A) teaches taste masking compositions comprising spray dried microcapsules containing sucralfate, and Alkire (U.S. Pat. No. 5,607,697A) and Cherukuri et al (U.S. Pat. No. 5,013,716A) teach the manufacture of taste masking microparticles for oral dosage forms. Patell (U.S. Pat. No. 4,916,161A) teaches the use of taste-masking pharmaceutical agents via wet granulation. In short, many methods are available to produce a formulation that will effectively prevent dogs or other pet animals from experiencing the bitter taste of DHEAS. Very little work has been done using DHEAS as the pharmaceutical ingredient, with most studies utilizing DHEA. For example, US20140235598A1 teaches the manufacture of tablets containing DHEA, but a similar formulation could be rendered with DHEAS.

Dehydroepiandrosterone sulfate [DHEAS]
dogs whose owners reported a clear increase in playfulness and/or sociability during the treatment period (60 treated dogs, DHEAS oral (liquid or capsules), 0.5-50 mg/kg, owner estimation): fifty-six of sixty and 56 of 60
playfulness and sociability (doses of 5 mg/kg and above): profound increase
playfulness and sociability (lower dose of 1 mg/kg): an effect could be observed
owners who reported the changes in their dogs to be dramatic (of twenty-six dogs treated with the highest doses (25 or 50 mg/kg)): eighteen
